From patent US20230227427A1, “IL-17A MODULATORS” (SANOFI, priority 2010, published 2023) come the findings set out here.

For the experiment, the target named is T1, human recombinant IL-17A (Homo sapiens, UniProt Q16552).
T1 construct: purchased R&D Systems 7955-IL/CF
T1 sequence (Q16552 24-155): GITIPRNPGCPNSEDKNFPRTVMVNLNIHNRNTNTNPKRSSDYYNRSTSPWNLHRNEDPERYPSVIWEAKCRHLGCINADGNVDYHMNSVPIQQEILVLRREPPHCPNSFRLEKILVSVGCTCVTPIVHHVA
Kind of experiment: IL-17A AlphaLISA assay (block binding of IL-17A to its receptor IL-17RA). The note with it: read-out: AlphaLISA pIC50 (converted). In short, it runs like this: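 Compounds pre-incubated 24 h at RT (30 min where flagged) with human IL-17A (7.5 nM stock) before IL-17RA/Fc (5 nM stock), 90 min. Read by AlphaLISA via anti-Fc acceptor and biotin anti-IL-17A/streptavidin donor beads, 680/615 nm. 4-parameter fit; DMSO and 6 μM reference inhibitor as controls; pIC50.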
In general terms: Alpha assays give light when donor and acceptor beads are brought close together.

[1] abbreviates: compounds pre-incubated with the IL-17A for 24 h at room temperature.
Where [2] appears, read: compounds pre-incubated with the IL-17A for 30 min (indicated by * in Table A).

Where two headings read alike, the source gives them in different places.

With `Cn1nccc1C(=O)N[C@H](C(=O)Nc1ccc(C2CCOCC2)cc1)[C@H]1CC[C@H](C)CC1` [Example 93, 1-Methyl-N—((S)-1-((1r,4S)-4-methylcyclohexyl)-2-oxo-2-((4-(tetrahydro-2H-pyran-4-yl)phenyl)amino)ethyl)-1H-pyrazole-5-carboxamide], the IC50 under setting [1] was 0.0501 µM.
For the molecule `Cn1nccc1C(=O)N[C@H](C(=O)Nc1ccc(C2(O)CCOCC2)cc1)[C@H]1CC[C@H](C)CC1` [Example 94, N—((S)-2-((4-(4-Hydroxytetrahydro-2H-pyran-4-yl)phenyl)amino)-1-((1r,4S)-4-methylcyclohexyl)-2-oxoethyl)-1-methyl-1H-pyrazole-5-carboxamide], the IC50 under setting [1] was 0.126 µM.
Take `Cn1nccc1C(=O)N[C@H](C(=O)Nc1ccc(C2=CCOCC2)cc1)[C@H]1CC[C@H](C)CC1` [Example 95, N—((S)-2-((4-(3,6-Dihydro-2H-pyran-4-yl)phenyl)amino)-1-((1r,4S)-4-methylcyclohexyl)-2-oxoethyl)-1-methyl-1H-pyrazole-5-carboxamide]: the IC50 under setting [1] was 0.1 µM.
Take `Cc1noc(C)c1-c1ccc(NC(=O)[C@@H](NC(=O)c2ccnn2C)[C@H]2CC[C@H](C)CC2)cc1` [Example 96, N—((S)-2-((4-(3,5-Dimethylisoxazol-4-yl)phenyl)amino)-1-((1r,4S)-4-methylcyclohexyl)-2-oxoethyl)-1-methyl-1H-pyrazole-5-carboxamide]: the IC50 under setting [1] is 0.0501 µM.
Consider `Cc1noc(C)c1-c1ccc(NC(=O)[C@@H](NC(=O)c2ccnn2C)[C@H]2CC[C@H](C)CC2)nc1` [Example 97, N—((S)-2-((5-(3,5-Dimethylisoxazol-4-yl)pyridin-2-yl)amino)-1-((1r,4S)-4-methylcyclohexyl)-2-oxoethyl)-1-methyl-1H-pyrazole-5-carboxamide], for which the IC50 under setting [1] is 0.0794 µM.
Regarding `Cc1n[nH]c(C)c1-c1ccc(NC(=O)[C@@H](NC(=O)c2ccnn2C)[C@H]2CC[C@H](C)CC2)nc1` [Example 99, N—((S)-2-((5-(3,5-Dimethyl-1H-pyrazol-4-yl)pyridin-2-yl)amino)-1-((1r,4S)-4-methylcyclohexyl)-2-oxoethyl)-1-methyl-1H-pyrazole-5-carboxamide], the IC50 under setting [2] was 0.2 µM.
Same read-out and setting: with `Cc1cncc(C)c1-c1ccc(NC(=O)C(NC(=O)c2ccnn2C)C2CCCCCCC2)cc1` (centres unmarked) [Example 103, N-(1-Cyclooctyl-2-((4-(3,5-dimethylpyridin-4-yl)phenyl)amino)-2-oxoethyl)-1-methyl-1H-pyrazole-5-carboxamide] the figure was 0.126 µM; with `Cc1n[nH]c(C)c1-c1ccc(NC(=O)C(NC(=O)c2ccnn2C)C2CCCCCCC2)cc1` (centres unmarked) [Example 104, N-(1-Cyclooctyl-2-((4-(3,5-dimethyl-1H-pyrazol-4-yl)phenyl)amino)-2-oxoethyl)-1-methyl-1H-pyrazole-5-carboxamide], 0.0794 µM.
Same read-out and setting: under `Cc1noc(C)c1-c1ccc(NC(=O)C(NC(=O)c2ccnn2C)C2CCCCCCC2)nc1` (centres unmarked) [Example 105, N-(1-Cyclooctyl-2-((5-(3,5-dimethylisoxazol-4-yl)pyridin-2-yl)amino)-2-oxoethyl)-1-methyl-1H-pyrazole-5-carboxamide] stands 0.158 µM.
For `Cc1cnn(C)c1-c1ccc(NC(=O)[C@@H](NC(=O)c2ccnn2C)[C@H]2CC[C@H](C)CC2)nc1` [Example 106, N—((S)-2-((5-(1,4-Dimethyl-1H-pyrazol-5-yl)pyridin-2-yl)amino)-1-((1r,4S)-4-methylcyclohexyl)-2-oxoethyl)-1-methyl-1H-pyrazole-5-carboxamide], the IC50 under setting [2] was 0.1 µM.
For the molecule `Cc1c(-c2ccc(NC(=O)C(NC(=O)c3ccnn3C)C3CCCCCCC3)cc2)ccc(=O)n1C` (centres unmarked) [Example 107, N-(1-Cyclooctyl-2-((4-(1,2-dimethyl-6-oxo-1,6-dihydropyridin-3-yl)phenyl)amino)-2-oxoethyl)-1-methyl-1H-pyrazole-5-carboxamide], under setting [2], the IC50 was 0.158 µM.
